Test results: patent US7091238B1, “Thienylhydrazon with digitalis-like properties (positive inotropic effects)” (University of Maryland, priority 1999, dated 2006)
“Also recorded” adds a separate entry of the source.

Key:
rat cardiac muscle = test: Isometric tension of papillary, atrial and ventricular bundles of cardiac muscle
Description: (§1) FIG. 2. The papillary muscle, and bundles of atrial and ventricular cells obtained from rat hearts were dissected and set in an aerated chamber to enable recording of isometric tension. LASSBio-294 was added to the chamber in a cumulative manner, first 10 μM and increasing to 50 μM and recordings made after allowing 5 min. for equilibration.
FIG. 3. LASSBio-294 was added to the physiologic solution at increasing concentrations. The isometric tension was expressed as a percent of control, as measured prior to addition of test solution. N=9 for each concentration.
a. The test shown in FIG. 2 measured the effect of LASSBio-294 on the isometric tension of papillary, atrial, and ventricular bundles of rat cardiac muscle. Chart traces are of muscle tension for each muscle group. […] FIG. 3 contains a graphic representation of the effect of LASSBio-294 on isometric tension of papillary, atrial, and ventricular bundles of rat cardiac muscle. LASSBio-294 at concentrations of 0 μM, 25 μM, 50 μM, 100 μM, 200 μM, and 500 μM was used. Isometric tension is expressed as a percent of control that was measured prior to addition of the test solution. […] General Method
as §1, with “The” for “FIG. 2. The”, “aerated verticle” for “aerated”, “manner. Recordings” for “manner, first 10 μM and increasing to 50 μM and recordings”

[1] = Toxicity study: body weight after injection; type: in vivo, mice; conditions: vs saline and solvent vehicle controls, 1–15 days of treatment
Description: (§2) b. Rats were weighed before and after treatment with LASSBio 204. […] Six rats were examined in each group, measurements were made after 1–15 days of treatment. […] Mice were injected with LASSBio-294 and their blood examined for cell changes. Experimental groups received 2 or 10 mg/kg of drug. […] Table 4 lists blood chemistry analysis of mice treated with LASSBio-294. Experimental groups received 2 or 10 mg/kg of drug. Controls were saline and solvent. […] The low values of glucose found could be due to an artifact of the technique, glucose being a byproduct of hemolysis. […] General Method

particulate PDE 4 = test: Direct inhibition of particulate PDE 4; type: biochemical; conditions: rat heart
blood cells = test: Blood cell analysis in treated mice; type: in vivo; conditions: 2 or 10 mg/kg
Description: as §2

[2] = system: Na^+/K^+-ATPase extracted from heart muscle or gastrocnemius muscle; test: Effect on Na+/K+-ATPase; type: biochemical; conditions: enzyme from rat heart or gastrocnemius muscle
single muscle fiber = test: Twitch tension in single amphibian muscle fibers; type: cell-based, frog, rana pipiens
Description: FIG. 15. Effect of 12.5 μM of compound 294 on force development in a single muscle fiber stimulated at different frequencies. The frequency of stimulation in Hz is indicated under each trace. Top panel, stimulating cycle done in Ringer without compound 294. Middle panel, stimulating cycle done 17 min after the fiber was bathed with compound 294. Bottom panel, second cycle of stimulation done 17 min after compound 294 was washed out with Ringer. Force calibration bars are 50 mg for twitches and 10 Hz simulations and 100 mg for 30, 60, and 90 Hz.
FIG. 16. Histogram showing the effect of 12.5 μM compound 294 and after washing out LASSBio-294 on fractional twitch tension (Tx/To). Tx represents the twitch tension obtained when the fiber was bathed with the solutions indicated above each column. The order of the columns are the order in which the simulating cycles were performed.
The tests in amphibians were performed in isolated single muscle cells freshly isolated from either the semitendinous or the tibialis anterior muscles of the frog, rana pipiens. The isolated muscle cells were left resting for at least half an hour in Ringer's solution. The fibers were then stimulated with single, low-voltage, electric shocks. If fibers gave brisk twitches and had no signs of membrane damage, they were used. Otherwise, they were discarded. Healthy fibers were transferred to the experimental chamber, which consisted of a 0.3 ml narrow channel where the solutions could be changed several times within five seconds. One tendon of the fiber was gripped with a small clamp and the other tendon was attached to a hook of an Ekhart;s type force transducer. The stimulating electrode consisted of platinum wires placed to each side of the fiber. The muscle fibers were stretched 1.3 times their slack length to reach approximately an average sarcomere length of 1.6 μm.
The fibers were stimulated with single electric pulses of 0.5 msec duration and variable voltage. The voltage was increased until the threshold for contraction was reached. This voltage was then increased by 50% and the experimental protocol started. To find out if LASSBio-294 has an effect on contractility, a stimulating protocol was used consisting of a series of single twitches elicited every 3 sec. followed by different frequencies of tetanic stimulation of 10 Hz, 30 Hz, and 60 Hz. The fibers rested for three minutes between each tetanic stimulation. When the whole series of stimulations were repeated, the fibers rested for 10 min. between each series of twitches and tetanic stimulations. Fatigue was induced by repetitive cycles of electrical stimulation. Each cycle consisted of a train of electric shocks delivered at 60 Hz for 0.8 sec followed by a single twitch after 2.2 sec and repeated every 4.15 sec. […]. […]

[3] = system: Ca^2+-ATPase extracted from heart muscle or gastrocnemius muscle; test: Effect on Ca2+-ATPase; type: biochemical; conditions: enzyme from rat heart or gastrocnemius muscle
Description: Determination of phosphodiesterase direct effect was also negative.

O=C(NN=Cc1cccs1)c1ccc2c(c1)OCO2 [LASSBio-294, 3,4-methylenedioxybenzoyl-2-thienylhydrazone]
isometric tension as percent of control vs concentration (rat cardiac muscle; 0, 25, 50, 100, 200, 500 μM, nine tests per concentration): increased for each concentration up to 200 μM
isometric tension (rat cardiac muscle; papillary, atrial, ventricular bundles, 10 μM and 50 μM cumulative): increase in tension
increased tension over control (rat cardiac muscle; ventricular, papillary and atrial bundles, concentrations of up to 200 uM): ≤ 2 fold
body weight [1]: unaffected
body weight ([1]; listed as LASSBio294): no change in weight
direct inhibition of particulate PDE 4 (particulate PDE 4): did not inhibit directly
blood cell values (blood cells): unaffected; also recorded: no significant change in blood cell values
hematocrit levels, leucocytes and hemoglobin (blood cells): not significantly changed
effect on Na^+/K^+-ATPase [2]: did not affect
increase of twitch tension vs control (single muscle fiber; 12.5 μM, second stimulation cycle, 17 min in compound): ~50%
increase of twitch peak tension vs control (single muscle fiber; 12.5 μM, three minutes after bathing): approximately 25%
twitch tension potentiation vs control after wash out (single muscle fiber; 17 min in Ringer after washing away 12.5 μM compound): approximately 77%
twitch force on re-exposure (single muscle fiber; fiber exposed again to 12.5 μM after wash out): decrease in twitch force
effect on Ca^2+-ATPase [3]: did not affect
